Key:
Type in all cases: in vivo
[1] = tested on: Italian ryegrass (Lolium multiflorum); assay: Test A preemergence, visual plant response rating; conditions: for Ryegrass, Italian plant response rating: 125 g ai/ha, preemergence, 0 to 100 scale, 0 no effect, 100 complete control; for Ryegrass, Italian plant response rating (0 to 100 scale): 500 g ai/ha Preemergence, approx. 10 days
Method in brief: (§1)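 Formulated in a non-phytotoxic solvent mixture including surfactant, each test chemical was sprayed onto the soil surface after sowing, or onto seedlings 2 to 10 cm high. Roughly 10 days later, plants were compared with untreated controls and rated for injury from 0 (no effect) to 100 (complete control).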

[2] = tested on: barnyardgrass (Echinochloa crus-galli); assay: Test A preemergence, visual plant response rating; conditions: for Barnyardgrass plant response rating: 125 g ai/ha, preemergence, 0 to 100 scale, 0 no effect, 100 complete control; for Barnyardgrass plant response rating (0 to 100 scale): 500 g ai/ha Preemergence, approx. 10 days
Method in brief: as §1

[3] = tested on: foxtail, giant (giant foxtail, Setaria faberii); assay: Test A preemergence, visual plant response rating; conditions: for Foxtail, Giant plant response rating: 125 g ai/ha, preemergence, 0 to 100 scale, 0 no effect, 100 complete control; for Foxtail, Giant plant response rating (0 to 100 scale): 500 g ai/ha Preemergence, approx. 10 days
Method in brief: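 Ratings use a 0–100 visual scale (100 = complete control) against untreated controls, scored about 10 days after greenhouse treatment. Test chemicals were formulated in surfactant-containing non-phytotoxic solvent and applied either as soil spray after planting (preemergence) or onto one- to two-leaf, 2–10 cm plants (postemergence).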

[4] = tested on: kochia (Kochia scoparia); assay: Test A preemergence, visual plant response rating; conditions: for Kochia plant response rating: 125 g ai/ha, preemergence, 0 to 100 scale, 0 no effect, 100 complete control; for Kochia plant response rating (0 to 100 scale): 500 g ai/ha Preemergence, approx. 10 days
Method in brief: as §1

[5] = tested on: pigweed (Amaranthus retroflexus); assay: Test A preemergence, visual plant response rating; conditions: for Pigweed plant response rating: 125 g ai/ha, preemergence, 0 to 100 scale, 0 no effect, 100 complete control; for Pigweed plant response rating (0 to 100 scale): 500 g ai/ha Preemergence, approx. 10 days
Method in brief: as §1

[6] = tested on: ragweed (common ragweed, Ambrosia elatior); assay: Test A preemergence, visual plant response rating; conditions: for Ragweed plant response rating (0 to 100 scale): 500 g ai/ha Preemergence, approx. 10 days
Method in brief: as §1

[7] = tested on: Italian ryegrass (Lolium multiflorum); assay: Test A postemergence, visual plant response rating
Method in brief: as §1

[8] = tested on: barnyardgrass (Echinochloa crus-galli); assay: Test A postemergence, visual plant response rating; conditions: for Barnyardgrass plant response rating (0 to 100 scale): 500 g ai/ha, postemergence, 0 is no effect, 100 is complete control; for Barnyardgrass plant response rating: Postemergence, 125 g ai/ha, 0 to 100 scale (0 no effect, 100 complete control)
Method in brief: as §1

[9] = tested on: blackgrass (Alopecurus myosuroides); assay: Test A postemergence, visual plant response rating; conditions: for Blackgrass plant response rating (0 to 100 scale): 500 g ai/ha, postemergence, 0 is no effect, 100 is complete control; for Blackgrass plant response rating: Postemergence, 125 g ai/ha, 0 to 100 scale (0 no effect, 100 complete control)
Method in brief: as §1

[10] = tested on: corn (Zea mays); assay: Test A postemergence, visual plant response rating; conditions: for Corn plant response rating (0 to 100 scale): 500 g ai/ha, postemergence, 0 is no effect, 100 is complete control; for Corn plant response rating: Postemergence, 125 g ai/ha, 0 to 100 scale (0 no effect, 100 complete control)
Method in brief: as §1

[11] = tested on: foxtail, giant (giant foxtail, Setaria faberii); assay: Test A postemergence, visual plant response rating; conditions: for Foxtail, Giant plant response rating (0 to 100 scale): 500 g ai/ha, postemergence, 0 is no effect, 100 is complete control; for Foxtail, Giant plant response rating: Postemergence, 125 g ai/ha, 0 to 100 scale (0 no effect, 100 complete control)
Method in brief: as §1

[12] = tested on: galium (catchweed bedstraw, Galium aparine); assay: Test A postemergence, visual plant response rating; conditions: for Galium plant response rating (0 to 100 scale): 500 g ai/ha, postemergence, 0 is no effect, 100 is complete control; for Galium plant response rating: Postemergence, 125 g ai/ha, 0 to 100 scale (0 no effect, 100 complete control)
Method in brief: as §1

[13] = tested on: kochia (Kochia scoparia); assay: Test A postemergence, visual plant response rating; conditions: for Kochia plant response rating (0 to 100 scale): 500 g ai/ha, postemergence, 0 is no effect, 100 is complete control; for Kochia plant response rating: Postemergence, 125 g ai/ha, 0 to 100 scale (0 no effect, 100 complete control)
Method in brief: as §1

[14] = tested on: pigweed (Amaranthus retroflexus); assay: Test A postemergence, visual plant response rating; conditions: for Pigweed plant response rating (0 to 100 scale): 500 g ai/ha, postemergence, 0 is no effect, 100 is complete control; for Pigweed plant response rating: Postemergence, 125 g ai/ha, 0 to 100 scale (0 no effect, 100 complete control)
Method in brief: as §1

[15] = tested on: ragweed (common ragweed, Ambrosia elatior); assay: Test A postemergence, visual plant response rating; conditions: for Ragweed plant response rating (0 to 100 scale): 500 g ai/ha, postemergence, 0 is no effect, 100 is complete control; for Ragweed plant response rating: Postemergence, 125 g ai/ha, 0 to 100 scale (0 no effect, 100 complete control)
Method in brief: as §1

[16] = tested on: wheat (Triticum aestivum); assay: Test A postemergence, visual plant response rating; conditions: for Wheat plant response rating: 0 to 100 scale (0 no effect, 100 complete control)
Method in brief: as §1

[17] = tested on: barnyardgrass (Echinochloa crus-galli); assay: Test B flooded paddy test, visual plant response rating; conditions: 250 g ai/ha, Flood, applied to paddy water, 2-leaf stage, evaluated after 13 to 15 days
Method in brief: (§2)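 Greenhouse paddy conditions applied: two-leaf plants, a 3 cm flood above the soil surface maintained throughout, and compound added to the water rather than the foliage. Plants were judged visually against controls at 13 to 15 days.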

[18] = tested on: ducksalad (Heteranhera limosa); assay: as above; conditions: 250 g ai/ha, Flood, applied to paddy water, 2-leaf stage, evaluated after 13 to 15 days
Method in brief: as §2

[19] = tested on: rice (Oryza sativa); assay: as above; conditions: 250 g ai/ha, Flood, applied to paddy water, 2-leaf stage, evaluated after 13 to 15 days
Method in brief: as §2

[20] = tested on: sedge, umbrella (small-flower umbrella sedge, Cyperus difformis); assay: as above; conditions: 250 g ai/ha, Flood, applied to paddy water, 2-leaf stage, evaluated after 13 to 15 days
Method in brief: as §2

[21] = 500 g ai/ha, postemergence, 0 is no effect, 100 is complete control

SMILES	Ryegrass, Italian plant response rating [1]	Ryegrass, Italian plant response rating (0 to 100 scale) [1]	Barnyardgrass plant response rating [2]	Barnyardgrass plant response rating (0 to 100 scale) [2]	Foxtail, Giant plant response rating [3]	Foxtail, Giant plant response rating (0 to 100 scale) [3]	Kochia plant response rating [4]	Kochia plant response rating (0 to 100 scale) [4]	Pigweed plant response rating [5]	Pigweed plant response rating (0 to 100 scale) [5]	Ragweed plant response rating (0 to 100 scale) [6]	Ryegrass, Italian plant response rating (0 to 100 scale) [7, 21]	Barnyardgrass plant response rating (0 to 100 scale) [8]	Barnyardgrass plant response rating [8]	Blackgrass plant response rating (0 to 100 scale) [9]	Blackgrass plant response rating [9]	Corn plant response rating (0 to 100 scale) [10]	Corn plant response rating [10]	Foxtail, Giant plant response rating (0 to 100 scale) [11]	Foxtail, Giant plant response rating [11]	also measured
CCO/N=C(\c1c(O)c(Cl)nn(C)c1=O)c1cccc2ccccc12 [Compound 146]	0	0	60	60	70	80	30	100	80	100	100	0	60	30	60	30	20	30	70	60	Ragweed plant response rating ([6]; 125 g ai/ha, preemergence, 0 to 100 scale, 0 no effect, 100 complete control): 90; Ryegrass, Italian plant response rating (0 to 100 scale) ([7]; Postemergence, rate not given, approx. 10 days): 0; Galium plant response rating (0 to 100 scale) [12]: 90; Galium plant response rating [12]: 70; Kochia plant response rating (0 to 100 scale) [13]: 80; Kochia plant response rating [13]: 60; Pigweed plant response rating (0 to 100 scale) [14]: 90; Pigweed plant response rating [14]: 70; Ragweed plant response rating (0 to 100 scale) [15]: 100; Ragweed plant response rating [15]: 90; Wheat plant response rating ([16]; Postemergence, 500 g ai/ha): 0; Wheat plant response rating (0 to 100 scale) ([16]; Postemergence, approx. 10 days): 0; Plant response rating, Barnyardgrass (0 to 100 scale, 0 is no effect, 100 is complete control) [17]: 0; Plant response rating, Ducksalad (0 to 100 scale, 0 is no effect, 100 is complete control) [18]: 0; Plant response rating, Rice (0 to 100 scale, 0 is no effect, 100 is complete control) [19]: 0; Plant response rating, Sedge, Umbrella (0 to 100 scale, 0 is no effect, 100 is complete control) [20]: 0
CON=C(c1cccc(C(F)(F)F)c1Cl)c1c(O)c(C)nn(C)c1=O [Compound 103]	30	70	0	40	0	20	0	0	0	50	50	50	30	20	40	20	0	0	30	0	Ryegrass, Italian plant response rating ([7]; Postemergence, 125 g ai/ha, 0 to 100 scale (0 no effect, 100 complete control)): 0; Galium plant response rating (0 to 100 scale) [12]: 70; Galium plant response rating [12]: 40; Kochia plant response rating (0 to 100 scale) [13]: 20; Kochia plant response rating [13]: 0; Pigweed plant response rating (0 to 100 scale) [14]: 30; Pigweed plant response rating [14]: 10; Ragweed plant response rating (0 to 100 scale) [15]: 20; Ragweed plant response rating [15]: 10; Wheat plant response rating (0 to 100 scale) [16, 21]: 0; Wheat plant response rating ([16]; Postemergence, 125 g ai/ha): 0; Plant response rating, Barnyardgrass (0 to 100 scale, 0 is no effect, 100 is complete control) [17]: 0; Plant response rating, Ducksalad (0 to 100 scale, 0 is no effect, 100 is complete control) [18]: 0; Plant response rating, Rice (0 to 100 scale, 0 is no effect, 100 is complete control) [19]: 0; Plant response rating, Sedge, Umbrella (0 to 100 scale, 0 is no effect, 100 is complete control) [20]: 0

From patent publication US20210045385A1, “PYRIDAZINONE-SUBSTITUTED KETOXIMES AS HERBICIDES” (FMC Corporation, priority 2018, published 2021)
